Reference: US20150284375A1 (AJINOMOTO CO., INC., priority 2012, published 2015)

Biological target: T1, human TRPA1 (Homo sapiens, UniProt O75762)
T1 construct: expressed in transfected cells; host or cells: Human embryonic kidney-derived 293T cells, transiently transfected with the pcDNA3.1/zeo(+) human TRPA1 plasmid
Assay: Measurement of TRPA1 antagonist activity (intracellular calcium increase, FLIPR, allylisothiocyanate stimulation)
Assay type: cell-based
Details: allylisothiocyanate 20 μM stimulation, FLIPR calcium assay; read-out: antagonism hTRPA1
Outline: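 IC50 derives from a sigmoid fit of inhibition of the 5-min FLIPR fluorescence change evoked by 20 μM allylisothiocyanate, normalized between agonist and buffer responses. Test substance, diluted in HBSS/20 mM HEPES pH 7.2 plus 0.1% BSA, was applied 10 min beforehand at room temperature to Calcium4-loaded 293T cells transiently expressing human TRPA1.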

T1 sequence (O75762 whole entry): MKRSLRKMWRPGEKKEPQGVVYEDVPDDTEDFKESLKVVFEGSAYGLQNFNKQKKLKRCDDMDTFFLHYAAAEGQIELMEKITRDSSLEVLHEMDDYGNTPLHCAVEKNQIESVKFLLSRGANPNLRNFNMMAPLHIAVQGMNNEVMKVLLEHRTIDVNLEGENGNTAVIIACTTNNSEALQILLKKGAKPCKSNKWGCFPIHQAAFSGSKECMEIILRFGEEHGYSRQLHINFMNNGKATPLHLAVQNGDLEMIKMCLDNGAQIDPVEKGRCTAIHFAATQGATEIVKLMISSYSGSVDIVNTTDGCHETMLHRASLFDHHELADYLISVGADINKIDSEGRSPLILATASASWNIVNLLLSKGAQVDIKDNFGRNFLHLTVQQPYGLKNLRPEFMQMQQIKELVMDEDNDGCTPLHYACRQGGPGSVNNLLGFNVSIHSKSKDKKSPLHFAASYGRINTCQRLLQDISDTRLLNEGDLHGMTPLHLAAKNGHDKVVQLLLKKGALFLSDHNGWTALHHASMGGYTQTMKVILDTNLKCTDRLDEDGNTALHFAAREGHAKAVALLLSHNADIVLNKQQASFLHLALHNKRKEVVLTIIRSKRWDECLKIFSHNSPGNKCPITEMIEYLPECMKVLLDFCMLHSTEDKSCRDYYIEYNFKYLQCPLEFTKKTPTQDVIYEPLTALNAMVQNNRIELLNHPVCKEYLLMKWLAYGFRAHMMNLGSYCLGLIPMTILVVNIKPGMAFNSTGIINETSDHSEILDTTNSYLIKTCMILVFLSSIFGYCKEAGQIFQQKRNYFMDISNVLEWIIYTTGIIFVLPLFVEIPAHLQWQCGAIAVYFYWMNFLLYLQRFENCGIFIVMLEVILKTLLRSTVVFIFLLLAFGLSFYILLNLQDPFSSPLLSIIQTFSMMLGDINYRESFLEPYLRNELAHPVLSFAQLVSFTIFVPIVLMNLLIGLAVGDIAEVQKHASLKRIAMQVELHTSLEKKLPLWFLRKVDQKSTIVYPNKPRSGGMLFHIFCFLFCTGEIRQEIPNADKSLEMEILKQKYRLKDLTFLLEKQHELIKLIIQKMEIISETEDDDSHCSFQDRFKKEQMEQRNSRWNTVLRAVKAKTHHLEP

IC50	Structure (SMILES)
1300 nM	CN(C)c1cccc(Oc2cccc(CNC(=O)[C@@H]3CCCN3S(=O)(=O)c3ccc(F)cc3)c2)c1 [Example 116, (2S)-N-[[3-[3-(dimethylamino)phenoxy]phenyl]methyl]-1-(4-fluorophenyl)sulfonyl-pyrrolidine-2-carboxamide]
9900 nM	CN(C)c1ccc(Oc2cccc(CNC(=O)[C@@H]3CCCN3S(=O)(=O)c3ccc(F)cc3)c2)cc1 [Example 117, (2S)-N-[[3-[4-(dimethylamino)phenoxy]phenyl]methyl]-1-(4-fluorophenyl)sulfonyl-pyrrolidine-2-carboxamide]
270 nM	N#Cc1ccc(Oc2cccc(CNC(=O)[C@@H]3CCCN3S(=O)(=O)c3ccc(F)cc3)c2)cc1 [Example 118, (2S)-N-[[3-(4-cyanophenoxy)phenyl]methyl]-1-(4-fluorophenyl)sulfonyl-pyrrolidine-2-carboxamide]
1000 nM	CC(C)(C)c1ccc(Oc2cccc(CNC(=O)[C@@H]3CCCN3S(=O)(=O)c3ccc(F)cc3)c2)cc1 [Example 119, (2S)-N-[[3-(4-tert-butylphenoxy)phenyl]methyl]-1-(4-fluorophenyl)sulfonyl-pyrrolidine-2-carboxamide]
17 nM	O=C(NCc1cccc(OCc2ccc(Cl)cc2)c1)[C@@H]1CCCN1S(=O)(=O)c1ccc(F)cc1 [Example 120, (2S)-N-[[3-[(4-chlorophenyl)methoxy]phenyl]methyl]-1-(4-fluorophenyl)sulfonyl-pyrrolidine-2-carboxamide]
31 nM	O=C(NCc1cccc(OCc2ccc(F)cc2)c1)[C@@H]1CCCN1S(=O)(=O)c1ccc(F)cc1 [Example 121, (2S)-N-[[3-[(4-fluorophenyl)methoxy]phenyl]methyl]-1-(4-fluorophenyl)sulfonyl-pyrrolidine-2-carboxamide]
440 nM	CC(C)(C)c1ccc(COc2cccc(CNC(=O)[C@@H]3CCCN3S(=O)(=O)c3ccc(F)cc3)c2)cc1 [Example 122]
25 nM	O=C(NCc1cccc(OCc2cccc(C(F)(F)F)c2)c1)[C@@H]1CCCN1S(=O)(=O)c1ccc(F)cc1 [Example 123, (2S)-1-(4-fluorophenyl)sulfonyl-N-[[3-[[3-(trifluoromethyl)phenyl]methoxy]phenyl]methyl]pyrrolidine-2-carboxamide]
130 nM	COc1cccc(COc2cccc(CNC(=O)[C@@H]3CCCN3S(=O)(=O)c3ccc(F)cc3)c2)c1 [Example 124, (2S)-1-(4-fluorophenyl)sulfonyl-N-[[3-[(3-methoxyphenyl)methoxy]phenyl]methyl]pyrrolidine-2-carboxamide]
38 nM	CN(C)c1cccc(COc2cccc(CNC(=O)[C@@H]3CCCN3S(=O)(=O)c3ccc(F)cc3)c2)c1 [Example 125, (2S)-N-[[3-[[3-(dimethylamino)phenyl]methoxy]phenyl]methyl]-1-(4-fluorophenyl)sulfonyl-pyrrolidine-2-carboxamide]
38 nM	O=C(NCc1cccc(OCc2cccc(N3CCCCC3)c2)c1)[C@@H]1CCCN1S(=O)(=O)c1ccc(F)cc1 [Example 126, (2S)-1-(4-fluorophenyl)sulfonyl-N-[[3-[[3-(1-piperidyl)phenyl]methoxy]phenyl]methyl]pyrrolidine-2-carboxamide]
130 nM	O=C(NCc1cccc(OCc2cccc(N3CCOCC3)c2)c1)[C@@H]1CCCN1S(=O)(=O)c1ccc(F)cc1 [Example 127, (2S)-1-(4-fluorophenyl)sulfonyl-N-[[3-[(3-morpholinophenyl)methoxy]phenyl]methyl]pyrrolidine-2-carboxamide]
120 nM	O=C(NCc1cccc(OCc2ccccc2F)c1)[C@@H]1CCCN1S(=O)(=O)c1ccc(F)cc1 [Example 128, (2S)-N-[[3-[(2-fluorophenyl)methoxy]phenyl]methyl]-1-(4-fluorophenyl)sulfonyl-pyrrolidine-2-carboxamide]
640 nM	CN(C)c1ccccc1COc1cccc(CNC(=O)[C@@H]2CCCN2S(=O)(=O)c2ccc(F)cc2)c1 [Example 129, (2S)-N-[[3-[[2-(dimethylamino)phenyl]methoxy]phenyl]methyl]-1-(4-fluorophenyl)sulfonyl-pyrrolidine-2-carboxamide]
20 nM	O=C(NCc1cccc(OCc2ccc(F)c(F)c2)c1)[C@@H]1CCCN1S(=O)(=O)c1ccc(F)cc1 [Example 130, (2S)-N-[[3-[(3,4-difluorophenyl)methoxy]phenyl]methyl]-1-(4-fluorophenyl)sulfonyl-pyrrolidine-2-carboxamide]
14 nM	O=C(NCc1cccc(OCc2ccc(Cl)c(F)c2)c1)[C@@H]1CCCN1S(=O)(=O)c1ccc(F)cc1 [Example 131, (2S)-N-[[3-[(4-chloro-3-fluoro-phenyl)methoxy]phenyl]methyl]-1-(4-fluorophenyl)sulfonyl-pyrrolidine-2-carboxamide]
2600 nM	O=C(NCc1cccc(OCc2cccnc2)c1)[C@@H]1CCCN1S(=O)(=O)c1ccc(F)cc1 [Example 132, (2S)-1-(4-fluorophenyl)sulfonyl-N-[[3-(3-pyridylmethoxy)phenyl]methyl]pyrrolidine-2-carboxamide]
4400 nM	O=C(NCc1cccc(OCc2ccncc2)c1)[C@@H]1CCCN1S(=O)(=O)c1ccc(F)cc1 [Example 133, (2S)-1-(4-fluorophenyl)sulfonyl-N-[[3-(4-pyridylmethoxy)phenyl]methyl]pyrrolidine-2-carboxamide]
38 nM	O=C(NCc1cccc(OCc2ccc(C(F)(F)F)nc2)c1)[C@@H]1CCCN1S(=O)(=O)c1ccc(F)cc1 [Example 134, (2S)-1-(4-fluorophenyl)sulfonyl-N-[[3-[[6-(trifluoromethyl)-3-pyridyl]methoxy]phenyl]methyl]pyrrolidine-2-carboxamide]
67 nM	O=C(NCc1cccc(OCc2ccnc(C(F)(F)F)c2)c1)[C@@H]1CCCN1S(=O)(=O)c1ccc(F)cc1 [Example 135, (2S)-1-(4-fluorophenyl)sulfonyl-N-[[3-[[2-(trifluoromethyl)-4-pyridyl]methoxy]phenyl]methyl]pyrrolidine-2-carboxamide]
140 nM	O=C(NCc1cccc(OCc2cccc(C(F)(F)F)n2)c1)[C@@H]1CCCN1S(=O)(=O)c1ccc(F)cc1 [Example 136, (2S)-1-(4-fluorophenyl)sulfonyl-N-[[3-[[6-(trifluoromethyl)-2-pyridyl]methoxy]phenyl]methyl]pyrrolidine-2-carboxamide]
44 nM	O=C(NCc1cccc(OCc2cncc(C(F)(F)F)c2)c1)[C@@H]1CCCN1S(=O)(=O)c1ccc(F)cc1 [Example 137, (2S)-1-(4-fluorophenyl)sulfonyl-N-[[3-[[5-(trifluoromethyl)-3-pyridyl]methoxy]phenyl]methyl]pyrrolidine-2-carboxamide]
110 nM	O=C(NCc1cccc(OCc2cncc(Cl)c2)c1)[C@@H]1CCCN1S(=O)(=O)c1ccc(F)cc1 [Example 138, (2S)-N-[[3-[(5-chloro-3-pyridyl)methoxy]phenyl]methyl]-1-(4-fluorophenyl)sulfonyl-pyrrolidine-2-carboxamide]
290 nM	O=C(NCc1cccc(OCc2ccoc2)c1)[C@@H]1CCCN1S(=O)(=O)c1ccc(F)cc1 [Example 139, (2S)-1-(4-fluorophenyl)sulfonyl-N-[[3-(3-furylmethoxy)phenyl]methyl]pyrrolidine-2-carboxamide]
